The text below walks through data of a melting point compilation (Tetko et al.; mined from patent text by program, amines drawn as free bases though some values may be those of a salt).

Each structure is given as a SMILES string. Bounds are passed on as bounds.

Turning to `Cc1noc(C)c1S(=O)(=O)Nc1cccc(C=C2c3ccccc3CCc3ccccc32)c1`, the melting point (in general, the temperature of the solid-liquid transition) was 149 °C. `CC(C)n1nc(-c2cnc(N)nc2-c2ccc(Cl)c(Cl)c2)ccc1=O` displayed a melting point of 176 °C. In the case of `COC(=O)C(O)C(NCc1ccccc1)c1ccccc1` (configuration not stated), the melting point was determined as 99 °C.

As to `CCN(CC)Cc1cc(NC(=O)Nc2ccc(Oc3cc(N)ncn3)cc2)cc(C(F)(F)F)c1`, the melting point lay in the range of 63 to 65 °C. Compound `COc1c(-c2nnc(Cc3ccc(F)cc3)o2)n(C)c2ccccc2c1=O` gave a melting point of 156 to 157 °C. In turn, `CCOc1cc(COc2cc(CCC(=O)O)n(-c3ccccc3)n2)cc(COc2ccc(Cl)cc2Cl)c1` yielded a melting point of 152 °C. Take `CCCCCCCCCCCCCCOc1cc(O)cc(C(=O)OC)c1`: the melting point lay within 92 to 94 °C. The result for `O=C(CCCl)c1ccc2c(c1)Cc1cc(C(=O)CCCl)ccc1O2` reads 180 to 181 °C; that for `O=C(CCc1cnoc1-c1ccccc1)Nc1cnccn1`, 163 to 164 °C. With `COC(=O)c1ccc(-c2cc(C(=O)NC3CC3)cc(F)c2C)c(C(=O)O)c1`, the melting point fell in the range of 217 to 222 °C.

`CCOc1cccc(CC(=O)O)c1OCCn1cc(C(=O)NCc2ccc(Cl)cc2Cl)c(OCC)n1` came in with a melting point of 145 to 146 °C. `Cc1ccccc1OCC1NCCS1` (configuration not stated) yielded a melting point of 66 to 68 °C. Consider `Cc1cc(C)c(N2c3ccccc3S(=O)(=O)c3cc(C=O)ccc32)c(C)c1`, for which the melting point lay within 194 to 197 °C. Turning to `COc1ccc(C2=NN(c3ccc(O)cc3)C(=O)C(C)(C)C2)cc1OC`, the melting point lay within 176 to 178 °C. As for `Cc1cc(C)c(-c2n[nH]c(=O)c3ccccc23)c(C)c1`, the melting point lay in the range of 259 to 262 °C. The compound `CN1CCN(C2=Nc3cc(F)ccc3Nc3nn(C)nc32)CC1` registered a melting point of 195 to 197 °C. Compound `Nc1ccc(-c2cccc(Cl)c2)cc1C(O)(C1CC1)C1CC1` registered a melting point of 90 to 92 °C.

For the compound `CCCCCCCCCCCCCCCCOc1ccc(C(C)=O)o1`, the melting point fell in the range of 72 to 76 °C. Regarding `CCCNCC(O)c1cccc(F)c1` (configuration not stated), the melting point was in the range of 46 to 47.3 °C. Turning to `CCCCCCCNC(=O)Nc1ccccc1C(=O)NC1CCN(C2c3ccccc3COc3ccc(Br)cc32)CC1` (configuration not stated), the melting point was 198 to 199 °C. Compound `CN(C)CC1(C2(O)CCCCC2)Cc2cc3c(cc21)NCC3` (configuration not stated) came in with a melting point of 159 to 161 °C. `CCCCn1c(=O)n(Cc2ccccc2)c(=O)c2[nH]c(Cc3ccc(N4C(=O)CCC4=O)cc3)nc21` yielded a melting point of 208 to 212 °C. Consider `Cc1sc(-c2ccccc2)nc1CCOc1ccc(N)cn1`, for which the melting point lay in the range of 89 to 91 °C. Next, `N#CSc1ccc(SCc2ncon2)cc1`: 78 °C. Compound `COc1ccc(C(=O)CN2CCN(C3CCCCO3)C2=O)cc1OC` (configuration not stated) showed a melting point of 120 °C.

Turning to `CCC1NC(c2cc(Cl)nc(Cl)c2)=NC(=O)C1C(=O)OC` (configuration not stated), the melting point is 188 to 189 °C.

`CCN(CC)C(=O)n1cnc(S(=O)(=O)c2cc(F)c(C#N)cc2F)n1` came in with a melting point of 98 °C. `OCC(CO)Oc1cc(-c2ccccc2)on1` yielded a melting point of 117 to 119 °C. `CC(C)(C)C(=O)Nc1cccc(-c2ccc(C3CCNC3=O)cc2F)n1` (configuration not stated) returned a melting point of 162 to 165 °C. For the compound `Nc1ccnc(Cl)c1Br`, the melting point came to 146 °C.

The compound `N#CC(=NOC(=O)OCc1ccccc1)c1ccccc1` returned a melting point of 73 to 75 °C. For the compound `O=S1(=O)N=C(NCC2CC2)Nc2ccc(C(F)(F)F)cc21`, the melting point lay in the range of 266 to 268 °C. On to `O=C(O)c1cc(=O)c2c(I)cc(Cl)cc2[nH]1`, for which the melting point was 298 °C. In turn, `CCOC1CC2(C)C(CCC3C4CCCC4(C)CC(N(C)C)C32)CC1O` (configuration not stated) displayed a melting point of 54 to 59 °C. With `CN(C)C1CCN(S(=O)(=O)c2cc(C#N)ccc2Sc2cc(Cl)ccc2Cl)CC1`, the melting point lay within 140 to 143 °C. In turn, `COC(=O)CN(C(=O)CSc1nc2c(F)c(F)cc(F)c2s1)c1ccccc1` displayed a melting point of 145 to 147 °C. Turning to `COc1cc(CC(C#N)=CNc2ccccc2)c2c(c1OC)OC(C1CC1)C=C2` (racemic), the melting point was 140 °C. `Cc1ccccc1-n1cnnc1C(F)(F)F` returned a melting point of 75 °C. The result for `O=C(NCCCCN1CCC(c2c[nH]c3ccccc23)CC1)c1ccc(-c2ccc(C(F)(F)F)cc2)cc1CO` reads 255 °C.

Consider `CCCCCCCCCCCCCC=C(C(=O)O)c1ccc2c(c1)C(C)(C)CCC2(C)C`, for which the melting point fell in the range of 59 to 60 °C.

Compound `CCOC(=O)c1c(C)cc2[nH]c(=O)n(-c3ccccc3C(F)(F)F)c(=O)c2c1C` had a melting point of 175 to 176 °C.

As to `COc1ccnc(CSc2nc3c(C)c(OC(F)F)c(C)cc3[nH]2)c1OC`, the melting point lay within 137 to 138 °C.

For the compound `O=C(c1cc(C(F)(F)F)cc(C(F)(F)F)c1)N1CCN(CCCC2(c3ccc(F)cc3)OCCO2)C[C@H]1Cc1c[nH]c2ccccc12`, the melting point is 145 to 146 °C. Next, `COc1ccc2ccccc2c1CCCC(=O)O`: 88 °C. As for `O=C(O)C(=O)c1oc2cccc(OCc3ccc(F)cc3)c2c1O`, the melting point lay in the range of 195 to 200 °C.

Turning to `CC(C)C1=CC(C(C)C)(S(=O)(=O)n2c(C3(O)C=CC(=O)C=C3)cc3ccccc32)CC(C(C)C)=C1` (configuration not stated), the melting point fell in the range of 55 to 57 °C.

On to `COc1cc2nc(N3CCN(c4nccs4)CC3)nc(N)c2cc1OC`, for which the melting point is 220 to 221 °C. The compound `COc1ccc(CS(=O)(=O)c2cc3cc(Br)ccc3oc2=O)cc1` had a melting point of 231 to 232 °C. `NC(=O)C(CCC(=O)OCc1ccccc1)N1Cc2c(OCc3ccc(CN4CCOCC4)cc3)cccc2C1=O` (configuration not stated) had a melting point of 141 to 143 °C. As for `CC(C)(C)c1cc(C(=O)Nc2cccc(OCc3cncc(Br)c3)c2)ccc1O`, the melting point lay within 105 to 111 °C. For the compound `CCCn1c(=O)c2[nH]c(-c3ccc(C=C(C(=O)OCC)C(=O)OCC)o3)nc2n(CCC)c1=O`, the melting point was 220 to 222 °C. Consider `CC(=O)N1OCC(=O)N(CO)C1c1ccccc1` (configuration not stated), for which the melting point lay in the range of 123 to 126 °C. The compound `CCCc1ccc(-c2ccc(-c3ccc(F)s3)c(F)c2)cc1` yielded a melting point of 64 °C. `O=C(Oc1ccccc1)N1CCCc2nc3ccccc3c(O)c2C1` came in with a melting point of 299 °C. The compound `Cc1[nH]c(=S)[nH]c1C(=O)c1ccccc1` had a melting point of 268 to 269 °C. The result for `O=C1Cc2cnccc2N1` reads greater than 250 °C. `Cc1nc(C)c(-c2ccnc(Nc3ccc(N4CCSCC4)cc3)n2)s1`: the melting point was in the range of 173 to 174 °C. The compound `COc1cc(C=C(C(C)=O)C(C)=O)ccc1O` came in with a melting point of 135 to 137 °C.

Compound `CSc1ncc(Br)c(P(=O)(c2ccccc2)c2ccccc2)n1` had a melting point of 124 to 127 °C. Next, `COc1cc(NCCCCCCN2CCN(C(=O)OCc3ccccc3)CC2)c2nccc(C)c2c1`: 73 to 73.5 °C. Compound `O=C(NCCO)c1cccc(-c2ccc3c(c2)N(c2cccc(Cl)c2Cl)CC3)c1` displayed a melting point of 162 to 163 °C. Turning to `COC(=O)C(C)Nc1nc(Cl)ccc1[N+](=O)[O-]` (configuration not stated), the melting point lay within 113 to 114 °C. The result for `COc1ccc(S(=O)(=O)Nc2c(Cl)cncc2Cl)c2c1oc1ccccc12` reads 242 to 244 °C; that for `CCOC(=O)C(=O)CC(=O)C(Br)C(Br)c1ccccc1OC` (configuration not stated), 113 to 115 °C. Next, `O=C(O)Cc1c(Cl)nc(-c2ccccc2)n1Cc1ccc(O)cc1`: 196 to 199 °C. `Cc1cc(C2=NNC(=O)CC2)ccc1CCCCNC(=O)c1cccnc1` gave a melting point of 160 to 161 °C. On to `O=C(O)c1cc2ccccc2n1Cc1cc([N+](=O)[O-])cc2[nH]c(=O)c(=O)[nH]c12`, for which the melting point was greater than 300 °C. For `O=C(Nc1nc(C(Cl)(Cl)Cl)ns1)c1c(Cl)cccc1Cl`, the melting point was determined as 209 °C. The result for `C1=CC[C@@]2(Cc3ccccc3)CN(Cc3ccccc3)C[C@H]2C1` (relative stereo) reads 142 to 144 °C; that for `CN1CCOc2cc([N+](=O)[O-])ccc2C1=O`, 130 to 132 °C. The compound `CC(=Cc1ccc(C(=O)O)cc1)c1cc2c(cc1C)C(C)(C)CCC2(C)C` displayed a melting point of 91 to 92 °C. On to `COc1ccc(S(=O)(=O)C2(C(=O)NO)CCCC2)cc1`, for which the melting point fell in the range of 89 to 91 °C. Compound `O=C(O)c1[nH]cc(OCc2ccccc2)c(=O)c1Br` displayed a melting point of 120 °C. `COc1cc2ncnc(Nc3cccc(N=[N+]=[N-])c3)c2cc1OC`: the melting point lay within 110 to 113 °C. The result for `C=C1C[C@@H]2[C@H](CC[C@]3(C)C(=O)CC[C@@H]23)[C@@]2(C)CCC(=O)C(OC(C)=O)=C12` reads 183 to 185 °C; that for `CP(C)(=O)CNc1cc(Oc2ncc(Cl)cc2Cl)ccc1[N+](=O)[O-]`, 153 to 155 °C. The compound `COC1(c2ccc(C(C)C)cc2OCc2ccccc2)C(=O)c2ccccc2C1=O` displayed a melting point of 140 to 144 °C. With `C[Si](C)(C)C#Cc1ccc(O)cc1`, the melting point lay within 60 to 63.5 °C. Consider `Clc1ccccc1-c1noc(-c2ccccc2Cl)n1`, for which the melting point lay within 91 to 92 °C. `CCOC(=O)/C=C/c1cc2nc(CC)n(CCc3ccccc3)c(=O)c2cc1F` yielded a melting point of 140 to 142 °C. For `COCCN(C)C(=O)COc1cc(-c2ccc(C)cc2)nc2cccc(C(F)(F)F)c12`, the melting point is 116 °C. `COc1cccc(NC(=O)c2ccc(F)c([N+](=O)[O-])c2)c1` came in with a melting point of 145 to 146 °C. As for `CNC(=O)[C@H](C)C[C@H](O)[C@H](CC1CCCCC1)NC(=O)[C@H](Cc1cscn1)NC(=O)[C@@H](CC(=O)N1CCOCC1)Cc1ccccc1`, the melting point is 130 to 132 °C. In the case of `CCc1cc(-c2cc(-c3ccc(C(=O)O)cc3)ccc2OCCO)ccc1N(CC)CC`, the melting point is 206 °C. `CCCCCCC(Oc1c(Br)cc(-c2ccc(-c3c(Cc4ccccc4)oc4ccccc34)cc2)cc1Br)C(=O)O` (configuration not stated) returned a melting point of 72 to 74 °C. Compound `COc1c(N2CCO[C@@H](CN(C)C)C2)c(F)cc2c(=O)c(C(=O)O)cn(C3CC3)c12` displayed a melting point of 146 to 147 °C. As for `CNC(=O)Nc1coc2ccccc2c1=O`, the melting point stood at 254 °C.
